Tested on: Human Umbilical Vein Endothelial Cells (HUVECs)
Experiment: Inhibition against invasive tube formation by vascular endothelial cells in response to stimulation by angiogenic factor mixture
Format: cell-based
Design: key: the number of tubes formed in the absence of the test substance was designated as +++; scored on the 5-level scale of +++, ++, +, +/−, −; scored on the 5-level scale of +++, ++, +, +/−, −; scored on the 5-level scale of +++, ++, +, +/−, −; − was assigned if absolutely no tubes formed
Details: HUVEC on fibrin gel, EGF/FGF2/VEGF/HGF/TNF-α mixture, 6th day, MTT staining; for number of tubes formed in the fibrin gel (score) at 0.01 μM: test substance 0.01 μM; for number of tubes formed in the fibrin gel (score) at 0.1 μM: test substance 0.1 μM; for number of tubes formed in the fibrin gel (score) at 1.0 μM: test substance 1.0 μM
Method: Inhibition Against Invasive Tube Formation by Vascular Endothelial Cells in Response to Stimulation by Angiogenic Factor Mixture
Human Umbilical Vein Endothelial Cells (HUVECs) were isolated according to a reported method (Shinseikagaku Jikken Koza [New Biochemistry Experiment Lectures], “Saibo Baiyo Gijutsu” [Cell Culturing Techniques], p.197–202), and were cultured in a 5% CO2 incubator (37° C.) using EGM-2 medium (purchased from Clonetics Corp.) until the cells reached confluency. After adding 0.4 ml of bovine fibrinogen (purchased from Sigma Co.) to the inner well of a Transwell culturing plate (purchased from Coster Inc.), it was hardened with 0.7 units/ml of thrombin (purchased from Sigma Co.). The HUVECs were recovered using trypsin-EDTA and then suspended in human endothelial serum free medium basal growth medium (hereinafter abbreviated as SFM, purchased from GIBCO BRL), and 0.4 ml of the cell suspension (1.4×10^5 cells) was seeded onto the hardened fibrin gel and cultured for approximately 4 hours in a 5% CO2 incubator (37° C.). After 4 hours, there was added to the outer chamber of the Transwell 1.5 ml of an SFM solution containing a mixture of angiogenic factors {10 ng/ml EGF (purchased from GIBCO BRL), 30 ng/ml FGF2 (purchased from GIBCO BRL), 75 ng/ml VEGF (purchased from Wako Pure Chemical Industries Co., Ltd.), 50 ng/ml HGF (purchased from R&D Co.) and 7.5 ng/ml TNF-α (purchased from Genzyme Corp.) [The concentrations of the angiogenic factors differed slightly according to the HUVEC lot.]} and a diluted test substance, and culturing was carried out in a 5% CO2 incubator (37° C.). On the 2nd and 4th days after adding the test substance, the medium was exchanged with 1.5 ml of freshly prepared SFM solution containing the angiogenic factor mixture and test substance. Upon aspirating off the culture supernatant in the inner well on the 6th day after the initial addition of the test substance, 0.4 ml of a 3.3 mg/ml MTT solution dissolved in PBS (purchased from Sigma Corp.) was added and culturing was performed for approximately 1 hour in a 5% CO2 incubator (37° C.). The number of tubes formed in the fibrin gel stained with MTT was scored based on microscope observation. Specifically, the number of tubes formed in the absence of the test substance was designated as +++, while − was assigned if absolutely no tubes formed. The number of tubes formed in the presence of the test substance was scored on the 5-level scale of +++, ++, +, +/−, − to evaluate the strength of inhibition of the test substance.

SMILES | number of tubes formed in the fibrin gel (score) at 0.01 μM | number of tubes formed in the fibrin gel (score) at 0.1 μM | number of tubes formed in the fibrin gel (score) at 1.0 μM
N#CCCCOc1cc2nccc(Oc3ccc(NC(=O)Nc4ccc(F)cc4F)c(F)c3)c2cc1C#N [Example 55, N-(4-(6-Cyano-7-(3-cyanopropoxy)-4-quinolyl)oxy-2-fluorophenyl)-N′-(2,4-difluorophenyl)urea] | +++ | +/− | +/−
NC(=O)c1cc2c(Oc3ccc(NC(=O)NC4CC4)c(F)c3)ccnc2cc1OCCCN1CCOCC1 [Example 374, 4-(4-(Cyclopropylaminocarbonyl)amino-3-fluorophenoxy)-7-(3-(4-morpholino)propoxy)-6-quinolinecarboxamide] | +/− | − | −
COc1cc2nccc(Oc3ccc(NC(=O)NC4CC4)c(Cl)c3)c2cc1C(=O)NCCS(C)(=O)=O [Example 404, N6-(2-(Methylsulfonyl)ethyl)-4-(3-chloro-4-(((cyclopropylamino)carbonyl)amino)phenoxy)-7-methoxy-6-quinolinecarboxamide] | − | − | −
CCNC(=O)n1ccc2cc(Oc3ccnc4cc(OC)c(C(N)=O)cc34)ccc21 [Example 316, 6-Carbamoyl-4-(1-ethylcarbamoyl-1H-indol-5-yloxy)-7-methoxyquinoline] | +/− | − | −
COCCOc1cc2nccc(Oc3ccc(NC(=O)Nc4ccc(F)cc4)c(F)c3)c2cc1C#N [Example 100, N-(4-(6-Cyano-7-(2-methoxyethoxy)-4-quinolyl)oxy-2-fluorophenyl)-N′-(4-fluorophenyl)urea] | ++ | +/− | +/−

Source: patent publication US7253286B2, “Nitrogen-containing aromatic derivatives” (Eisai Co., Ltd, priority 2000, dated 2007)
